Laboratory results: patent US20130012472A1, “COMPOSITION AND METHODS OF INHIBITING GASTROINTESTINAL PATHOGEN INFECTION” (Boston College, priority 2011, published 2013)

What was measured:
[1] = system: IL-8; experiment: ELISA of IL-8 secretion by ETEC-infected IECs; type: cell-based; conditions: for IL-8 secretion induced by ETEC invasion: ETEC-infected IECs with inhibitors, FIGS. 3D and 3E
Description: (§1) Intestinal epithelial cells (IECs) such as HCT8, T84, Caco2, H4, and FHs74 cells, were cultured in 24-well tissue culture plates (Corning life Sciences Inc, MA) at 5×10^4 cells/well in antibiotic free media for 48 hours. The IEC cells, with or without treatment of HMOS or TFiLNO, were incubated with a suspension of ETEC H10407 cells (10^5-10^9 cfu) for 1 h at 37° C. […] gentamicin was then added to the culture to kill any extracellular bacteria cells. Cell lysis was performed in 500 μl of 0.5% Triton X-100 (Sigma, Mo.) for 30 minutes at room temperature. The cell lysates were plated on difco agar plates (antibiotic free) at a proper dilution of 500. The total number of cell-associated bacteria was determined as the number of bacteria in IEC lysate immediately after infection. The number of invaded bacteria was determined as those detected in IEC cell lysate prepared from IECs treated with gentamycin for 1 hour after bacterial infection. The number of bacteria adhered to IEC cells was calculated as follows: (The total number of cell-associated bacteria)−(The number of invaded bacteria). All of the adhesion and invasion assays were performed in duplicate in at least three independent experiments.
(§2) Levels of proinflammatory factors (IL-8, IL-6, TNF-α, and MCP-1) in the culture supernatants of the IECs were measured using ELISA kits from R&D following manufacturer's protocols.

[2] = system: ETEC; experiment: Pre-incubation assay (ETEC pre-incubated with TFiLNO, then invasion of T84 cells); type: cell-based, Escherichia coli; conditions: ETEC pre-incubated 2 h with TFiLNO 30 pg/mL, then T84 cells 1 hour; FIG. 6B
Description: ETEC cells in mid-logarithmic growth phase were re-suspended in PBS (pH 7.2) at a concentration of 2×10^8 cells/ml. The suspension was mixed with an equal volume of PBS in the presence or absence of TFiLNO (30 pg/mL), and incubated in U-bottom 96-well plates at room temperature for 2 h with brief mixing every 15 min. At the end of the incubation, the ETEC cells were co-incubated with T84 cells for 1 hour at 37° C. After extracellular bacteria were killed by gentamycin, invaded ETEC were measured as described above.

[3] = system: ETEC; experiment: Wash-out experiments (IECs pre-incubated with TFiLNO, washed, then ETEC invasion); type: cell-based, Escherichia coli; conditions: IECs incubated 48 hours with 30 pg/mL TFiLNO, washed 6 times with PBS; FIG. 6C
Description: IECs were grown in 24-well tissue culture plates (Corning life Sciences Inc, MA) at 5×10^4 cells/well in an antibiotic free medium for 48 hours. The culture medium was then replaced with a fresh medium containing 30 pg/mL TFiLNO. The IECs were further incubated at 37° C. for 48 hours. Supernatants were discarded and cells were washed 6 times with PBS. The cells were then incubated in a fresh medium free of TFiLNO and contains ETEC (10^8). After 1 hour incubation, extracellular bacteria were killed by gentamycin. Invaded ETEC were measured as described previously.

[4] = system: IL-8; experiment: LPS-stimulated IL-8 secretion by T84 cells in the absence of ETEC (ELISA); type: cell-based; conditions: TFiLNO 30 pg/ml, 1 h at 37° C., FIG. 7A
Description: as §2
To examine the effect of TFiLNO on IL-8 production, this oligosaccharide (30 pg/ml) was incubated with T84 cells in the absence of ETEC for 1 h at 37° C. IL-8 secretion to the culture medium was determined by ELISA. […] See also FIGS. 7B and 7C.

[5] = system: ETEC H10407; experiment: Bacteria invasion assay (adherence and invasion of ETEC to IECs); type: cell-based, Escherichia coli
Description: as §1

[6] = system: CD14; experiment: CD14 expression on IECs (RT-PCR, FACS); type: cell-based, human; conditions: TFiLNO-treated IECs; FIGS. 7B and 7C
Description: IEC cells (e.g., T84 cells) were treated with HMOS (5 mg/mL) prepared as described above for 48 hours. Cells not treated by HMOS were used as a negative control. Total RNAs were purified from the IEC cells and RT-PCR was performed following routine methods to determine the expression levels of genes of interest, including those shown in FIG. 7B. GADPH was used as an internal control. The relative gene expression levels were determined by Delta CT Method. T84 cells treated with or without HMOS were incubated with PE-conjugated mouse anti-human CD14 Mabs. PE-conjugated isotype-matched (IgG1) antibodies were used as controls. Data respecting 20,000 live cells from each sample were collected and subjected to FACS analysis following routine procedures.

[7] = system: ETEC; experiment: Bacteria killing assay; type: cell-based, Escherichia coli; conditions: TFiLNO 30 pg/ml; FIG. 6A

Compound	IL-8 secretion induced by ETEC invasion [1]	invasion of ETEC after pre-incubation of ETEC with TFiLNO [2]	secretion of IL-8 by the treated IEC cells ([1]; TFiLNO 30 pg/ml, ETEC-infected IEC cells, over time, FIG. 5C)	inhibitory activity against ETEC invasion after washing off preincubated TFiLNO [3]	IL-8 secretion stimulated by LPS [4]	adherence of ETEC to IEC cells ([5]; TFiLNO 30 pg/ml, FIG. 5A)	invasion of ETEC to IEC cells ([5]; TFiLNO 30 pg/ml, FIG. 5B)	CD14 expression on IECs [6]	killing of ETEC [7]	ETEC invasion of IEC cells ([5]; cytochalasin D, FIG. 3D)
polymycin-B	reduced									
Trifucosyl(1,2-1,2-1,3)-lacto-N-octoase [TFiLNO]		could not be further inhibited	significantly reduced	did not affect	directly inhibited	inhibit	inhibit	suppression	did not kill	
C=C1[C@@H](C)[C@H]2[C@H](Cc3ccccc3)NC(=O)[C@]23[C@H](OC(C)=O)/C=C/[C@@](C)(O)C(=O)[C@@H](C)C/C=C/[C@H]3[C@@H]1O [cytochalasin D, reference compound]	inhibited									Inhibition of invasion
